Assay results reported in patent publication US9657018B2, “Antagonists acting at multiple prostaglandin receptors for the treatment of inflammation” (Allergan, Inc., priority 2014, dated 2017).
Counter-ions that a name gives are not always drawn. Values belong to the molecule of their own block, whether it stands above or below them.

Assays:
Format in all cases: cell-based
[1] = target: T1, human prostanoid FP receptor (Homo sapiens, UniProt P43088); assay: FLIPR Ca2+ signaling antagonist assay, FP receptor stable cell line; conditions: human recombinant FP in HEK-293 EBNA cells; standard agonist 17-phenyl-PGF2a; NA = no antagonism or Kb>=10,000 nM
T1 construct: expressed in transfected cells
Experimental: (§1) The above compounds were tested for PG antagonist activity as follows using human recombinant prostanoid receptor (DP1, EP1-4, FP, IP and TP) stable cell lines:
(§2) In order to measure the response of Gs and Gi coupled prostanoid receptors as a Ca^2+ signal, chimeric G protein cDNAs were used. Stable cell lines over-expressing human prostanoid DP1, EP1-4, FP, IP, and TP receptors were established as follows:
(§3) Briefly, human prostanoid DP1, EP2, and EP4 receptor cDNAs were co-transfected with chimeric Gqs cDNA containing a haemagglutanin (HA) epitope; human prostanoid EP3 receptors were co-transfected with chimeric Gqi-HA; human EP1, FP, IP, and TP receptor cDNAs were expressed with no exogenous G-proteins. Gqs and Gqi chimeric cDNAs (Molecular Devices, Sunnyvale, Calif., U.S.A.), as well as cDNAs of prostanoid receptors, were cloned into a pCEP4 vector with a hygromycin B selection marker. Transfection into HEK-293 EBNA (Epstein-Barr virus nuclear antigen) cells was achieved by the FuGENE 6 transfection Reagent (Roche Applied Science, Indianapolis, Ind., USA). Stable transfectants were selected according to hygromycin resistance. Because Gqs and Gqi contained an HA epitope, G-protein expression was detected by Western blotting analysis using anti-mouse HA monoclonal antibody and horseradish peroxidase (HRP)-conjugated secondary antibody, while functional expression of prostanoid receptors was detected by FLIPR screening (Matias et al., 2004). These stable cell lines were validated using previously published antagonists at 10 μM against serial dilutions of standard agonists by FLIPR functional assays for Ca^2+ Signaling (as described below).
(§4) Ca^2+ signaling studies were performed using a FLIPR TETRA system (Molecular Devices, Sunnyvale, Calif., USA) in the 384-format. This is a high-throughput instrument for cell-based assays to monitor Ca^2+ signaling associated with GPCRs and ion channels. Cells were seeded at a density of 5×10^4 cells/well in BioCoat poly-D-lysine coated, black wall, clear bottom 384-well plates (BD Biosciences, Franklin lakes, NJ, USA) and allowed to attach overnight in an incubator at 37° C. The cells were then washed twice with HBSS-HEPES buffer (Hanks' balanced salt solution without bicarbonate and phenol red, 20 mM HEPES, pH 7.4) using an ELx405 Select CW Microplate Washer (BioTek, Winooski, Vt., USA). After 60 min of dye-loading in the dark using the Ca^2+-sensitive dye Fluo-4AM (Invitrogen, Carlsbad, Calif., USA), at a final concentration of 2×10^−6M, the plates were washed 4 times with HBSS-HEPES buffer to remove excess dye and leaving 50 μl of buffer in each well. The plates were then placed in the FLIPR TETRA instrument and allowed to equilibrate at 37° C. AGN-211377 was added in a 25 μl volume to each well to give final concentrations of 0.1 μl. M, 0.4M, 1 μM, 3 μl. M, 10 μl. M, and 30 μl. M; or 0.067 μM, 0.4M, 0.67 μM, and 1 μM for cells over-expressing TP receptors. After 4.5 minutes, a 7-point serial dilution of the standard agonist for the corresponding receptor, in a 25 μl volume was injected at the final concentrations from 10^−11M to 10^−5M in 10-fold serial dilution increments for cells expressing human recombinant DP1, EP1, EP2, EP3, EP4, FP, and IP receptors. The dose range for the standard agonist for human recombinant TP receptors was from 10^−12M to 10^−6M. HBSS-HEPES buffer was used as the negative control for the standard agonists. Cells were excited with LED (light emitting diode) excitation at 470-495 nm and emission was measured through an emission filter at 515-575 nm. Assay plates were read for 3.5 minutes using the FLIPR^TETRA. The peak increase in fluorescence intensity was recorded for each well. On each plate, negative controls, dose response of positive controls, and co-treatments of antagonist-agonist for each dose were in triplicates. Standard agonists were as follows: DP=BW 245C, EP1-EP4=PGE2, FP=17-phenyl-PGF2a, IP=Cicaprost, and TP=U-46619. […]

[2] = target: T2, human prostanoid EP2 receptor (Homo sapiens, UniProt P43116); assay: FLIPR Ca2+ signaling antagonist assay, EP2 receptor stable cell line; set-up: key to FLIPR data EP2 (Kb): PAg = partial agonist; Ag = agonist; NA = not active; conditions: human recombinant EP2 + chimeric Gqs in HEK-293 EBNA cells; standard agonist PGE2; NA = no antagonism or Kb>=10,000 nM
T2 construct: expressed in transfected cells
Experimental: as §1, §2, §3, §4

[3] = target: T3, human prostanoid EP3 receptor (Homo sapiens, UniProt P43115); assay: FLIPR Ca2+ signaling antagonist assay, EP3 receptor stable cell line; conditions: human recombinant EP3 + chimeric Gqi in HEK-293 EBNA cells; standard agonist PGE2; NA = no antagonism or Kb>=10,000 nM
T3 construct: expressed in transfected cells
T3 sequence (P43115 1-390): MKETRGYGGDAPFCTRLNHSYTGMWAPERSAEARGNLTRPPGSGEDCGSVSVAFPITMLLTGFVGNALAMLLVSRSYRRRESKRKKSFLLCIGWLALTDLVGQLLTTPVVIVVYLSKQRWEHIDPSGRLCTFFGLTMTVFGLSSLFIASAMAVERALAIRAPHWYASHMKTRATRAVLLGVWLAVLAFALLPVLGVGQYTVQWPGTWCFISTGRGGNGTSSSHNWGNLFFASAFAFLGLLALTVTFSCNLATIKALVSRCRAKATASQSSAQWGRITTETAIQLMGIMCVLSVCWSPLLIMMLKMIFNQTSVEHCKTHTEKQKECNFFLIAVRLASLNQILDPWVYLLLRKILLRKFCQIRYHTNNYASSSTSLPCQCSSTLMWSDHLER
Experimental: as §1, §2, §3, §4

[4] = target: T4, human prostanoid EP4 receptor (Homo sapiens, UniProt P35408); assay: FLIPR Ca2+ signaling antagonist assay, EP4 receptor stable cell line; conditions: human recombinant EP4 + chimeric Gqs in HEK-293 EBNA cells; standard agonist PGE2; NA = no antagonism or Kb>=10,000 nM
T4 construct: expressed in transfected cells
Experimental: as §1, §2, §3, §4

[5] = target: T5, human prostanoid IP receptor (Homo sapiens, UniProt P43119); assay: FLIPR Ca2+ signaling antagonist assay, IP receptor stable cell line; set-up: key to FLIPR data IP (Kb): PAg = partial agonist; Ag = agonist; NA = not active; conditions: human recombinant IP in HEK-293 EBNA cells; standard agonist Cicaprost; NA = no antagonism or Kb>=10,000 nM
T5 construct: expressed in transfected cells
Experimental: as §1, §2, §3, §4

T4 sequence (P35408 whole entry): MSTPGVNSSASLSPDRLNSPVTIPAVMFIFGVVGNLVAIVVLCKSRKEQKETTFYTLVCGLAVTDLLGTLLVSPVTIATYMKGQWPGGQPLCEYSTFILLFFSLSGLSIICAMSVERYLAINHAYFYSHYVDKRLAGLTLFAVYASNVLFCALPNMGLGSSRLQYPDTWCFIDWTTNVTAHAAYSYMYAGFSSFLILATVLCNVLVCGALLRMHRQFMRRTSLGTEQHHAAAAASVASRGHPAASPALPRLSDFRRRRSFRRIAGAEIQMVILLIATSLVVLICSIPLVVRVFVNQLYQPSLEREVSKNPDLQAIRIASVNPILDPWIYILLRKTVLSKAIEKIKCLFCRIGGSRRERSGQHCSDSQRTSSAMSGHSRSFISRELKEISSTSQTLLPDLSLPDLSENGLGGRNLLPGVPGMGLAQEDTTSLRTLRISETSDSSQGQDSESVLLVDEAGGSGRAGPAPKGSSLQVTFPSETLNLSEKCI
T5 sequence (P43119 whole entry): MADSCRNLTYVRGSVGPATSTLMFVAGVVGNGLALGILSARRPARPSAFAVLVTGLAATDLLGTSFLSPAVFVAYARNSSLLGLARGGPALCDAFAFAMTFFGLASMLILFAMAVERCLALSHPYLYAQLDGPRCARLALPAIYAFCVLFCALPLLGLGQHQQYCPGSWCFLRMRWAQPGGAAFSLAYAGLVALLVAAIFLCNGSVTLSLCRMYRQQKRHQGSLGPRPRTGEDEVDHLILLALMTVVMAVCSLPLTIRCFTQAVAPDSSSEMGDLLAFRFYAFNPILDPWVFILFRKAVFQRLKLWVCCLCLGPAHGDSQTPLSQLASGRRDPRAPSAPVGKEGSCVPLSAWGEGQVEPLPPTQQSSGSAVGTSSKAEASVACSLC
T2 sequence (P43116 whole entry): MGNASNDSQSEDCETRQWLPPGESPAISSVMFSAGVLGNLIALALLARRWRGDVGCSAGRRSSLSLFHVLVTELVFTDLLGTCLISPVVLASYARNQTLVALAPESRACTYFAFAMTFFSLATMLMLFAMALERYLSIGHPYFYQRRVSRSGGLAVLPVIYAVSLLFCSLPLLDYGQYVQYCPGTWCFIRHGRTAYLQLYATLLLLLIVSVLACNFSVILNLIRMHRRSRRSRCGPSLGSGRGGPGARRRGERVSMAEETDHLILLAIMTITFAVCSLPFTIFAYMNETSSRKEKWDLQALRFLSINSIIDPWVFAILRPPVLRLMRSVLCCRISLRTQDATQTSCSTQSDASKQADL
T1 sequence (P43088 whole entry): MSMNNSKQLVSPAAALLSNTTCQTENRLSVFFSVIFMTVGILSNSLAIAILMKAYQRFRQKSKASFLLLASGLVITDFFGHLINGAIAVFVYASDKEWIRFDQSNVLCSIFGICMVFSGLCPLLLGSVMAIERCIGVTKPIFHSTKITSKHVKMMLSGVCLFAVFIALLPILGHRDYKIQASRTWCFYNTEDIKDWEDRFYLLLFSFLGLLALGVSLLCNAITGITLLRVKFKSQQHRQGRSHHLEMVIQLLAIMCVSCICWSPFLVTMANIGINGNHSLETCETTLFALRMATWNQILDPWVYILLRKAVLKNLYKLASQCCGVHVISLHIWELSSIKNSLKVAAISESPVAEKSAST

Kb [1]: 0.07 µM
Kb [2]: 9.2 µM
Kb [3]: > 10 µM
Kb [4]: 0.024 µM
Kb [5]: > 10 µM
SMILES: CC(C)Cn1ncc2cc(Cl)cc(Cn3ncc4cc(C(=O)O)ccc43)c21 [Compound 41, 1-(5-Chloro-1-isobutyl-1H-indazol-7-ylmethyl)-1H-indazole-5-carboxylic acid]

Kb [1]: 0.04 µM
Kb [2]: > 10 µM
Kb [3]: > 10 µM
Kb [4]: 0.022 µM
Kb [5]: > 10 µM
SMILES: CC(C)Cn1ncc2cc(Br)cc(Cn3ncc4cc(C(=O)O)ccc43)c21 [Compound 42, 1-(5-Bromo-1-isobutyl-1H-indazol-7-ylmethyl)-1H-indazole-5-carboxylic acid]

Kb [1]: 0.7 µM
Kb [2]: > 10 µM
Kb [3]: > 10 µM
Kb [4]: 0.1 µM
Kb [5]: > 10 µM
SMILES: CC(C)Cn1ncc2cc(F)cc(Cn3ncc4cc(C(=O)O)ccc43)c21 [Compound 43, 1-(5-Fluoro-1-isobutyl-1H-indazol-7-ylmethyl)-1H-indazole-5-carboxylic acid]

Kb [1]: 0.15 µM
FLIPR data EP2 (Kb) [2]: PAg
Kb [3]: > 10 µM
Kb [4]: 0.028 µM
FLIPR data IP (Kb) [5]: PAg
SMILES: CC(C)Cn1ncc2cc(C(F)(F)F)cc(Cn3ncc4cc(C(=O)O)ccc43)c21 [Compound 44, 1-(1-Isobutyl-5-trifluoromethyl-1H-indazol-7-ylmethyl)-1H-indazole-5-carboxylic acid]

Kb [1]: 0.08 µM
Kb [2]: > 10 µM
Kb [3]: > 10 µM
Kb [4]: 0.005 µM
FLIPR data IP (Kb) [5]: Ag
SMILES: CC(C)Cn1ncc2cc(OC(F)(F)F)cc(Cn3ncc4cc(C(=O)O)ccc43)c21 [Compound 45, 1-(1-Isobutyl-5-trifluoromethoxy-1H-indazol-7-ylmethyl)-1H-indazole-5-carboxylic acid]

Kb [1]: 3 µM
Kb [2]: 5 µM
Kb [3]: > 10 µM
Kb [4]: 1.7 µM
Kb [5]: 1 µM
SMILES: CCC(CC)Cn1ncc2cc(Br)cc(Cn3ncc4cc(C(=O)O)ccc43)c21 [Compound 47, 1-[5-Bromo-1-(2-ethyl-butyl)-1H-indazol-7-ylmethyl]-1H-indazole-5-carboxylic acid]

Kb [1]: 3 µM
Kb [2]: > 10 µM
Kb [3]: > 10 µM
Kb [4]: 0.08 µM
Kb [5]: 8.9 µM
SMILES: CC(C)Cn1ncc2cc(C(F)(F)F)cc(Cn3cnc4cc(C(=O)O)ccc43)c21 [Compound 55, 1-(1-Isobutyl-5-trifluoromethyl-1H-indazol-7-ylmethyl)-1H-benzoimidazole-5-carboxylic acid]

Further lines, the molecule ahead of its results:

SMILES: CC(C)n1ncc2cc(Br)cc(Cn3ncc4cc(C(=O)O)ccc43)c21 [Compound 46, 1-(5-Bromo-1-isopropyl-1H-indazol-7-ylmethyl)-1H-indazole-5-carboxylic acid]
Kb [1]: 0.2 µM
Kb [2]: > 10 µM
Kb [3]: > 10 µM
Kb [4]: 0.33 µM
Kb [5]: > 10 µM

SMILES: CCCn1ncc2cc(Cl)cc(Cn3ncc4cc(C(=O)O)ccc43)c21 [Compound 48]
Kb [1]: 0.5 µM
Kb [2]: > 10 µM
Kb [3]: > 10 µM
Kb [4]: 0.13 µM
Kb [5]: > 10 µM

SMILES: CC(C)Cn1ncc2cc(Cl)cc(Cn3ncc4cc(C(=O)O)cnc43)c21 [Compound 49, 1-(5-Chloro-1-isobutyl-1H-indazol-7-ylmethyl)-1H-pyrazolo[3,4-b]pyridine-5-carboxylic acid]
Kb [1]: 1.9 µM
Kb [2]: > 10 µM
Kb [3]: > 10 µM
Kb [4]: 0.09 µM
Kb [5]: 8.9 µM

SMILES: CC(C)Cn1ncc2cc(Cl)cc(Cn3cnc4cc(C(=O)O)ccc43)c21 [Compound 50, 1-(5-Chloro-1-isobutyl-1H-indazol-7-ylmethyl)-1H-benzoimidazole-5-carboxylic acid]
Kb [1]: > 10 µM
Kb [2]: > 10 µM
Kb [3]: > 10 µM
Kb [4]: 0.08 µM
Kb [5]: > 10 µM

SMILES: CC(C)Cn1ncc2cc(Cl)cc(Cn3cnc4cc(C(=O)O)cnc43)c21 [Compound 51, 3-(5-Chloro-1-isobutyl-1H-indazol-7-ylmethyl)-3H-imidazo[4,5-b]pyridine-6-carboxylic acid]
Kb [1]: 4.9 µM
Kb [2]: > 10 µM
Kb [3]: > 10 µM
Kb [4]: 0.28 µM
Kb [5]: 8 µM

SMILES: CC(C)Cn1ncc2cc(Cl)cc(Cn3ccc4cc(C(=O)O)cnc43)c21 [Compound 52, 1-(5-Chloro-1-isobutyl-1H-indazol-7-ylmethyl)-1H-pyrrolo[2,3-b]pyridine-5-carboxylic acid]
Kb [1]: 0.7 µM
Kb [2]: > 10 µM
Kb [3]: 3.4 µM
Kb [4]: 0.09 µM
Kb [5]: 5.5 µM

SMILES: Cc1nn(Cc2cc(Br)cc3cnn(CC(C)C)c23)c2ccc(C(=O)O)cc12 [Compound 53, 1-(5-Bromo-1-isobutyl-1H-indazol-7-ylmethyl)-3-methyl-1H-indazole-5-carboxylic acid]
Kb [1]: 0.07 µM
Kb [2]: > 10 µM
Kb [3]: > 10 µM
Kb [4]: 0.09 µM
Kb [5]: > 10 µM

SMILES: Cc1nn(Cc2cc(Br)cc3cnn(CC(C)C)c23)c2ncc(C(=O)O)cc12 [Compound 54, 1-(5-Bromo-1-isobutyl-1H-indazol-7-ylmethyl)-3-methyl-1H-pyrazolo[3,4-b]pyridine-5-carboxylic HCl salt]
Kb [1]: 0.6 µM
Kb [2]: > 10 µM
Kb [3]: > 10 µM
Kb [4]: 0.38 µM
Kb [5]: 9.5 µM

SMILES: CC(C)Cn1ncc2cc(OC(F)(F)F)cc(Cn3cnc4cc(C(=O)O)ccc43)c21 [Compound 56, 1-(1-Isobutyl-5-trifluoromethoxy-1H-indazol-7-ylmethyl)-1H-benzoimidazole-5-carboxylic acid]
Kb [1]: > 10 µM
Kb [2]: > 10 µM
Kb [3]: > 10 µM
Kb [4]: 0.006 µM
Kb [5]: 9 µM

SMILES: CC(C)Cn1ncc2cc(Cl)cc(Cc3ncc4cc(C(=O)O)ccn34)c21 [Compound 61, 3-[(5-Chloro-1-isobutyl-indazol-7-yl)methyl]imidazo[1,5-a]pyridine-7-carboxylic acid]
Kb [1]: 0.6 µM
Kb [2]: > 10 µM
Kb [3]: > 10 µM
Kb [4]: 0.2 µM
Kb [5]: > 10 µM
